Experimental findings from ChEMBL document CHEMBL1201862, “PubChem BioAssay data set” (2004) are described below.

Common to all, as to experiment: growth of human tumour cells (NCI), 48 h
Experiment [1] concerns NCI-H460.
Experiment [2] has as its system HCT-116.
Experiment [3] concerns SK-OV-3.
The subject of experiment [4] is SK-MEL-5.
In experiment [5] the test system is COLO 205.
Experiment [6] concerns A549.
The test system of experiment [7] is DU-145.
The subject of experiment [8] is MOLT-4.
Experiment [9] has as its system NCI-H522.
Experiment [10] has as its system T47D.
The test system of experiment [11] is RPMI-8226.
Experiment [12] concerns U-251.
Experiment [13] has as its system SW-620.
Experiment [14] deals with TK-10.
The subject of experiment [15] is NCI-H23.
In experiment [16] the test system is SK-MEL-2.
The subject of experiment [17] is UACC-257.
The test system of experiment [18] is MDA-MB-435.
Experiment [19] relates to PC-3.
Experiment [20] concerns DMS-114.

The structures appear in SMILES notation.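 Where inhibition never reached the appropriate level, the endpoint shown equals the highest concentration tested. Otherwise, values were interpolated linearly from a five-concentration, 48-hour dose response in 96-well plates. At the GI50, growth is halved.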 Calls of active or inactive are those of the source. No stated cut-off is given here; in the data, active = GI50 up to about 1.1 µM and inactive = higher.

For the compound `O=c1oc2ccccc2c(Nc2ccc3c(c2)Oc2ccccc2O3)c1[N+](=O)[O-]`, the GI50 is 42.2 µM (inactive) in [1]; 31.8 µM (inactive) in [2]; 19.1 µM (inactive) in experiment [3]; 20.4 µM (inactive) in [4]; > 100 µM (inactive) in experiment [5]; 32.4 µM (inactive) in experiment [6]. Moreover, the GI50 in experiment [7] was 29.6 µM (inactive); in experiment [8], 43 µM (inactive); in [9] it was 24.1 µM (inactive); in [10] it was 28.7 µM (inactive); in experiment [11], 59.6 µM (inactive); in experiment [12] it was 16 µM (inactive). The GI50 is 22.7 µM (inactive) in [13]; 21.2 µM (inactive) in experiment [14]; 20.3 µM (inactive) in experiment [15]; 16.9 µM (inactive) in [16]; 30.3 µM (inactive) in [17]; 54.3 µM (inactive) in experiment [18]. Also, in [19], the GI50 is 17.7 µM (inactive).

Consider `N#C/C(N)=C(C#N)/N=C/NCCO`, for which the GI50 in experiment [1], in [2], in experiment [3], in experiment [4], in [5] and in experiment [6] was > 100 µM (inactive) throughout. Further, the GI50 in experiment [7], in [8], in [9], in experiment [10], in experiment [11] and in experiment [12] was > 100 µM (inactive) in each case. For the same compound, the GI50 in [13], in experiment [14], in [15], in [16], in [17] and in experiment [18] was > 100 µM (inactive) throughout. Moreover, the GI50 in experiment [19] was > 100 µM (inactive).

Turning to `CC(=O)Oc1ccc2c(c1)Oc1cc(C(C)=O)ccc1C21OC(=O)c2ccccc21` (stereo unspecified), the GI50 in experiment [1] is > 100 µM (inactive); in [2], > 100 µM (inactive); in [3], 94.8 µM (inactive); in experiment [4], > 100 µM (inactive); in experiment [5], > 100 µM (inactive); in experiment [6], > 100 µM (inactive). Moreover, the GI50 in experiment [7] was > 100 µM (inactive); in experiment [8] it was > 100 µM (inactive); in [9], > 100 µM (inactive); in experiment [10], > 100 µM (inactive); in [11] it was 30.2 µM (inactive); in [12] it was > 100 µM (inactive). Also, the GI50 in [13] is > 100 µM (inactive); in [14] it was > 100 µM (inactive); in experiment [15], > 100 µM (inactive); in experiment [16] it was > 100 µM (inactive); in [17], > 100 µM (inactive); in experiment [18] it was 88.3 µM (inactive). The GI50 in [19] is > 100 µM (inactive).

For `Cc1nc2ccc(S(=O)(=O)O)cc2c(=O)n1-c1ccc(C(=O)NN2C(=O)C(Cl)C2c2cccs2)cc1` (stereo unspecified), the GI50 in [1], in experiment [2], in experiment [3], in experiment [4], in experiment [5] and in experiment [6] was > 100 µM (inactive) in each case. Also, the GI50 in [7] was > 100 µM (inactive); in experiment [8] it was > 100 µM (inactive); in [9] it was > 100 µM (inactive); in [10] it was 31.3 µM (inactive); in [11], > 100 µM (inactive); in experiment [12] it was > 100 µM (inactive). In addition, the GI50 in experiment [13] is > 100 µM (inactive); in [14], > 100 µM (inactive); in experiment [15] it was > 100 µM (inactive); in [16] it was 23.3 µM (inactive); in experiment [17] it was > 100 µM (inactive); in [18] it was 27.5 µM (inactive). For the same compound, the GI50 in [19] was > 100 µM (inactive).

For `CC1=C2C(c3ccccc3)(c3ccccc3)C3C=CC2(C=N3)N(C(=O)NC2CCCCC2)C1=O` (stereo unspecified), the GI50 is 16 µM (inactive) in experiment [2]; 28.7 µM (inactive) in experiment [3]; 16.8 µM (inactive) in [4]; 15.9 µM (inactive) in experiment [5]; 16.9 µM (inactive) in experiment [6]; 17.4 µM (inactive) in [8]. The GI50 in experiment [11] was 15.9 µM (inactive); in experiment [12] it was 16.6 µM (inactive); in experiment [13], 17.3 µM (inactive); in [20], 17.9 µM (inactive); in experiment [15] it was 18.4 µM (inactive); in experiment [17], 17.1 µM (inactive).

For the compound `C=C1C(=O)O[C@H]2[C@H]([C@H](C)CCCC(C)=O)O[C@H]([C@@]3(C)CCC(=O)O3)C[C@@H]12`, the GI50 in experiment [1] is > 100 µM (inactive); in experiment [2] it was 22.3 µM (inactive); in experiment [3], > 100 µM (inactive); in experiment [4], > 100 µM (inactive); in experiment [5], 40.6 µM (inactive); in [6], > 100 µM (inactive). Also, the GI50 in experiment [7] was 40.6 µM (inactive); in experiment [8], 78.7 µM (inactive); in experiment [9] it was 26.4 µM (inactive); in experiment [10] it was 76 µM (inactive); in experiment [11], 31.8 µM (inactive); in experiment [12], > 100 µM (inactive). Further, the GI50 in experiment [13] is 46.3 µM (inactive); in experiment [14], 17.7 µM (inactive); in experiment [15], 43.4 µM (inactive); in experiment [16], > 100 µM (inactive); in experiment [17], 77.1 µM (inactive); in experiment [18] it was 38.5 µM (inactive). In experiment [19], the GI50 is > 100 µM (inactive).

For `CC(C)(C)c1cc(/C=C(\C#N)C2=NCCO2)cc(C(C)(C)C)c1O`, the GI50 is 2.51 µM (inactive) in experiment [1]; 3.07 µM (inactive) in experiment [2]; 3.31 µM (inactive) in experiment [3]; 2.38 µM (inactive) in experiment [4]; 1.91 µM (inactive) in [5]; 4.44 µM (inactive) in experiment [6]. For the same compound, the GI50 was 4.94 µM (inactive) in [7]; 3.37 µM (inactive) in [8]; 3.2 µM (inactive) in [9]; 2.64 µM (inactive) in experiment [10]; 1.86 µM (inactive) in experiment [11]; 3.31 µM (inactive) in experiment [12]. Moreover, the GI50 in experiment [13] is 4.06 µM (inactive); in experiment [14] it was 3.48 µM (inactive); in experiment [15], 3.44 µM (inactive); in experiment [16], 2.75 µM (inactive); in experiment [17] it was 2.64 µM (inactive); in experiment [18] it was 4.47 µM (inactive). Also, in experiment [19], the GI50 is 2.65 µM (inactive).

Regarding `O=[N+]([O-])c1c(/C=N/c2ccccc2)oc(-c2ccc3c(c2)OCO3)c1-c1ccc2c(c1)OCO2`, the GI50 in experiment [1] was > 100 µM (inactive); in [2], > 100 µM (inactive); in experiment [3], 44.9 µM (inactive); in experiment [4], > 100 µM (inactive); in experiment [5], > 100 µM (inactive); in experiment [6], > 100 µM (inactive). The GI50 was > 100 µM (inactive) in [8]; > 100 µM (inactive) in experiment [9]; > 100 µM (inactive) in experiment [11]; > 100 µM (inactive) in experiment [12]; > 100 µM (inactive) in experiment [13]; 60.7 µM (inactive) in experiment [20]. Moreover, the GI50 in experiment [14], in experiment [15] and in [17] was > 100 µM (inactive) in each case.

Consider `CN(C)c1ccc(/C=C(\NC(=O)c2ccccc2)c2nn(C)c(=O)o2)cc1`, for which the GI50 in [1] is 44.4 µM (inactive); in experiment [2], > 100 µM (inactive); in experiment [3], > 100 µM (inactive); in experiment [4], 26.3 µM (inactive); in experiment [5] it was > 100 µM (inactive); in experiment [6], > 100 µM (inactive). Also, the GI50 in experiment [7] was > 100 µM (inactive); in experiment [8], 35.3 µM (inactive); in [9], 17.6 µM (inactive); in experiment [10] it was > 100 µM (inactive); in [11] it was 32 µM (inactive); in experiment [12], 24 µM (inactive). For the same compound, the GI50 was 52 µM (inactive) in experiment [13]; > 100 µM (inactive) in experiment [14]; > 100 µM (inactive) in experiment [15]; 52.5 µM (inactive) in experiment [16]; 33 µM (inactive) in experiment [17]; 69 µM (inactive) in experiment [18]. The GI50 in experiment [19] is > 100 µM (inactive).

Take `CN1CC(=O)N(C)c2[nH]cnc2C1=O`: the GI50 in experiment [1], in experiment [3], in experiment [4], in [5], in experiment [6] and in experiment [8] was > 100 µM (inactive) throughout. Besides, the GI50 in [11], in experiment [12], in [13], in [20], in experiment [14] and in [15] was > 100 µM (inactive) throughout.

Consider `COC(=O)c1ccc(O)c2nc3c(C=O)c(O)cc(O)c3nc12` [LOMOFUNGIN], for which the GI50 in [1] is 0.413 µM (active); in [2], 0.0977 µM (active); in experiment [3] it was 2.96 µM (inactive); in experiment [4] it was 0.953 µM (active); in experiment [5], 3.1 µM (inactive); in [6], 0.396 µM (active). The GI50 is 0.685 µM (active) in experiment [7]; 0.225 µM (active) in [8]; 0.755 µM (active) in [9]; 0.397 µM (active) in [10]; 0.811 µM (active) in experiment [11]; 0.025 µM (active) in experiment [12]. Further, the GI50 in [13] was 0.641 µM (active); in experiment [14], 1.62 µM (inactive); in experiment [15], 0.139 µM (active); in experiment [16], 2.9 µM (inactive); in [17] it was 0.782 µM (active); in experiment [18] it was 0.935 µM (active). Moreover, in experiment [19], the GI50 is 0.661 µM (active).
